# Source: patent publication EP1247803A2, “Indolinone compounds suitable for modulation of protein kinases” (Sugen, Inc., priority 1996, dated 1998)
# Molecular target: T1, EGFR (Homo sapiens, UniProt P00533)
# T1 construct: Add 7 ug A431 cell lysate per well (EGFR source); endogenous in cells; host or cells: A431
# Assay: EGFR ELISA assay (in vitro kinase activity, EGFR captured from A431 cell lysate)
# Type: biochemical
# Parameters: concentration or dose not given beside the values
# How it was run: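 EGFR from A431 lysate was captured on anti-EGFR antibody-coated plates and preincubated with compounds for 30 min. Autophosphorylation ran 5 min with 3 uM ATP and 5 mM MnCl2 (final), stopped with 20 mM EDTA. Phosphotyrosine was detected by anti-pTyr ELISA with ABTS/H2O2, read at 410 nm.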
# T1 sequence (P00533 25-1210): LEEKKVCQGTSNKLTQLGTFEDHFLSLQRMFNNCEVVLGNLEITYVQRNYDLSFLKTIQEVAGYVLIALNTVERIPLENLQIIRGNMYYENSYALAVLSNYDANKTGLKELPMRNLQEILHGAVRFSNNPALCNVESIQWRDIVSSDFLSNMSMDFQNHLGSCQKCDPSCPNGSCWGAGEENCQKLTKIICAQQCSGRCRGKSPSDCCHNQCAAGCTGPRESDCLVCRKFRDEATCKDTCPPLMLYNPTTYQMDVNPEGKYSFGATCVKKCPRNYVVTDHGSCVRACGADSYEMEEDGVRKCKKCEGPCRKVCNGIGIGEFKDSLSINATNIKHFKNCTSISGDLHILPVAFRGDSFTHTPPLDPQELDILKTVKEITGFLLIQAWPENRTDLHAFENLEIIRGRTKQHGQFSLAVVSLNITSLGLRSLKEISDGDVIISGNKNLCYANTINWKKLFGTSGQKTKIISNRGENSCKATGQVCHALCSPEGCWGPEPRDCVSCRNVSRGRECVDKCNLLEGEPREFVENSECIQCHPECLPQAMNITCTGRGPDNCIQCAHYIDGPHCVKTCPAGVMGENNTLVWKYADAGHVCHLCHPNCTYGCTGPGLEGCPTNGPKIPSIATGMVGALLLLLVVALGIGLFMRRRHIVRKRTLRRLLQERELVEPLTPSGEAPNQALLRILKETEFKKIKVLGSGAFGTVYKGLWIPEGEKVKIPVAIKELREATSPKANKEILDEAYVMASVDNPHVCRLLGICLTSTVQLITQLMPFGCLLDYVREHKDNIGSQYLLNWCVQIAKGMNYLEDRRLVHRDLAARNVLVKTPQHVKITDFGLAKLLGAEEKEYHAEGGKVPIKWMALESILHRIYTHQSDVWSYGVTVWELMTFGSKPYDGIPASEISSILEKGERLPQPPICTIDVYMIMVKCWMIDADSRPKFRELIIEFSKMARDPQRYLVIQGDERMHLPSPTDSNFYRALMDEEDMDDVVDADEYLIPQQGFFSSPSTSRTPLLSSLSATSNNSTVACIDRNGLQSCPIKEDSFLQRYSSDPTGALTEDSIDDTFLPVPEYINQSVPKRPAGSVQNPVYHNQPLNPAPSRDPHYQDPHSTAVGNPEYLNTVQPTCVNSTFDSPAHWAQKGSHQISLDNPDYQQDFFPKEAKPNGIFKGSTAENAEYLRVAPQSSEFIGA
row,Compound,Biochem EGFR %Inhibition [%]
1,Cc1ccc(C=C2C(=O)Nc3ccc(I)cc32)s1 [10717/B07],58.3
2,O=C1Nc2ccc(I)cc2C1=Cc1ccc(Br)cc1 [10717/B08],60.5
3,O=C1Nc2ccc(I)cc2C1=Cc1ccc[nH]1 [10717/B09],78.3
4,COc1cccc(O)c1C=C1C(=O)Nc2ccc(I)cc21 [10717/B10],16.1
5,Cc1[nH]c(C=C2C(=O)Nc3ccc(I)cc32)c(Br)c1Br [10717/B11],82.7
6,CCOc1ccccc1C=C1C(=O)Nc2ccc(Br)c(C)c21 [10717/C02],-0.4
7,Cc1c(Br)ccc2c1C(=Cc1cccs1)C(=O)N2 [10717/C03],18.0
8,Cc1c(Br)ccc2c1C(=Cc1cccc([N+](=O)[O-])c1)C(=O)N2 [10719/C10],10.7
9,Cc1c(Br)ccc2c1C(=Cc1ccc(F)cc1C(F)(F)F)C(=O)N2 [10719/C11],-25.7
10,CCOc1ccc(C=C2C(=O)Nc3ccc(S(=O)(=O)NC)cc32)cc1OC [10719/D02],9.8
11,CNS(=O)(=O)c1ccc2c(c1)C(=Cc1ccc(O)c(O)c1)C(=O)N2 [10719/D03],95.7
12,CNS(=O)(=O)c1ccc2c(c1)C(=Cc1ccc(OC)cc1OC)C(=O)N2 [10719/D04],15.3
13,CCc1c(C)[nH]c(C=C2C(=O)Nc3ccc(S(=O)(=O)NC)cc32)c1C [10719/D05],18.5
14,CNS(=O)(=O)c1ccc2c(c1)C(=Cc1c(OC)cc(OC)cc1OC)C(=O)N2 [10719/D06],-12.2
15,CNS(=O)(=O)c1ccc2c(c1)C(=Cc1ccc(O)cc1)C(=O)N2 [10719/D07],13.7
16,CNS(=O)(=O)c1ccc2c(c1)C(=Cc1ccc(N(C)C)cc1)C(=O)N2 [10719/D08],-12.2
17,CNS(=O)(=O)c1ccc2c(c1)C(=Cc1ccc(F)cc1Cl)C(=O)N2 [10719/D09],-3.1
18,CNS(=O)(=O)c1ccc2c(c1)C(=Cc1cccc([N+](=O)[O-])c1)C(=O)N2 [10719/D10],-11.8
19,CCOc1ccc(C=C2C(=O)Nc3ccc(S(=O)(=O)Nc4ccc(C(F)(F)F)cc4)cc32)cc1OC [10719/E02],40.0
20,O=C1Nc2ccc(S(=O)(=O)Nc3ccc(C(F)(F)F)cc3)cc2C1=Cc1ccc(O)c(O)c1 [10719/E03],73.0
21,COc1ccc(C=C2C(=O)Nc3ccc(S(=O)(=O)Nc4ccc(C(F)(F)F)cc4)cc32)c(OC)c1 [10719/E04],-7.4
22,CCc1c(C)[nH]c(C=C2C(=O)Nc3ccc(S(=O)(=O)Nc4ccc(C(F)(F)F)cc4)cc32)c1C [10719/E05],21.2
23,COc1cc(OC)c(C=C2C(=O)Nc3ccc(S(=O)(=O)Nc4ccc(C(F)(F)F)cc4)cc32)c(OC)c1 [10719/E06],-42.0
24,O=C1Nc2ccc(S(=O)(=O)Nc3ccc(C(F)(F)F)cc3)cc2C1=Cc1ccc(O)cc1 [10719/E07],-18.4
25,CN(C)c1ccc(C=C2C(=O)Nc3ccc(S(=O)(=O)Nc4ccc(C(F)(F)F)cc4)cc32)cc1 [10719/E08],36.8

row,Compound,Biochem EGFR %Inhibition [%]
1,O=C1Nc2ccc(S(=O)(=O)Nc3ccc(C(F)(F)F)cc3)cc2C1=Cc1ccc(F)cc1Cl [10719/E09],-33.1
2,O=C1Nc2ccc(S(=O)(=O)Nc3ccc(C(F)(F)F)cc3)cc2C1=Cc1cccc([N+](=O)[O-])c1 [10719/E10],-32.4
3,O=C1Nc2ccc(S(=O)(=O)Nc3ccc(C(F)(F)F)cc3)cc2C1=Cc1ccc(F)cc1C(F)(F)F [10719/E11],-51.8
4,CCOc1ccc(C=C2C(=O)Nc3ccc(S(=O)(=O)N4CCOCC4)cc32)cc1OC [10719/F02],14.8
5,O=C1Nc2ccc(S(=O)(=O)N3CCOCC3)cc2C1=Cc1ccc(O)c(O)c1 [10719/F03],-30.8
6,COc1ccc(C=C2C(=O)Nc3ccc(S(=O)(=O)N4CCOCC4)cc32)c(OC)c1 [10719/F04],-6.0
7,CCc1c(C)[nH]c(C=C2C(=O)Nc3ccc(S(=O)(=O)N4CCOCC4)cc32)c1C [10719/F05],35.0
8,COc1cc(OC)c(C=C2C(=O)Nc3ccc(S(=O)(=O)N4CCOCC4)cc32)c(OC)c1 [10719/F06],-26.0
9,O=C1Nc2ccc(S(=O)(=O)N3CCOCC3)cc2C1=Cc1ccc(O)cc1 [10719/F07],20.1
10,CN(C)c1ccc(C=C2C(=O)Nc3ccc(S(=O)(=O)N4CCOCC4)cc32)cc1 [10719/F08],90.9
11,O=C1Nc2ccc(S(=O)(=O)N3CCOCC3)cc2C1=Cc1ccc(F)cc1Cl [10719/F09],-17.7
12,O=C1Nc2ccc(S(=O)(=O)N3CCOCC3)cc2C1=Cc1cccc([N+](=O)[O-])c1 [10719/F10],-17.7
13,O=C1Nc2ccc(S(=O)(=O)N3CCOCC3)cc2C1=Cc1ccc(F)cc1C(F)(F)F [10719/F11],-66.3
14,CCOc1ccc(C=C2C(=O)Nc3ccc(CCCl)cc32)cc1OC [10719/G02],-12.2
15,O=C1Nc2ccc(CCCl)cc2C1=Cc1ccc(O)c(O)c1 [10719/G03],89.5
16,COc1ccc(C=C2C(=O)Nc3ccc(CCCl)cc32)c(OC)c1 [10719/G04],-4.7
17,CCc1c(C)[nH]c(C=C2C(=O)Nc3ccc(CCCl)cc32)c1C [10719/G05],4.0
18,COc1cc(OC)c(C=C2C(=O)Nc3ccc(CCCl)cc32)c(OC)c1 [10719/G06],-45.7
19,O=C1Nc2ccc(CCCl)cc2C1=Cc1ccc(O)cc1 [10719/G07],-8.1
20,CN(C)c1ccc(C=C2C(=O)Nc3ccc(CCCl)cc32)cc1 [10719/G08],65.4
21,O=C1Nc2ccc(CCCl)cc2C1=Cc1ccc(F)cc1Cl [10719/G09],-32.8
22,O=C1Nc2ccc(CCCl)cc2C1=Cc1cccc([N+](=O)[O-])c1 [10719/G10],-27.6
23,O=C1Nc2ccc(CCCl)cc2C1=Cc1ccc(F)cc1C(F)(F)F [10719/G11],-44.1
24,O=C1Nc2c(Br)cc(Br)cc2C1=Cc1c(F)cc(F)cc1F [10720/A02],11.3
25,COc1cc(O)ccc1C=C1C(=O)Nc2c(Br)cc(Br)cc21 [10720/A03],-5.3

row,Compound,Biochem EGFR %Inhibition [%]
1,COc1ccc(C=C2C(=O)Nc3c(Br)cc(Br)cc32)cc1OC [10720/A04],-1.8
2,O=C1Nc2c(Br)cc(Br)cc2C1=Cc1ccccc1O [10720/A05],-4.4
3,O=C1Nc2c(Br)cc(Br)cc2C1=Cc1ccccc1 [10720/A06],44.7
4,CSc1ccc(C=C2C(=O)Nc3c(Br)cc(Br)cc32)s1 [10720/A07],42.5
5,Cc1cc(O)cc(O)c1C=C1C(=O)Nc2c(Br)cc(Br)cc21 [10720/A08],-23.2
6,CCOc1cc(C=C2C(=O)Nc3c(Br)cc(Br)cc32)ccc1O [10720/A09],8.6
7,COc1ccc(O)c(C=C2C(=O)Nc3c(Br)cc(Br)cc32)c1 [10720/A10],-2.7
8,O=C1Nc2c(Br)cc(Br)cc2C1=Cc1ncc[nH]1 [10720/A11],-23.2
9,O=C1Nc2ccc(I)cc2C1=Cc1c(F)cc(F)cc1F [10720/B02],18.4
10,COc1cc(O)ccc1C=C1C(=O)Nc2ccc(I)cc21 [10720/B03],32.3
11,COc1ccc(C=C2C(=O)Nc3ccc(I)cc32)cc1OC [10720/B04],50.5
12,O=C1Nc2ccc(I)cc2C1=Cc1ccccc1O [10720/B05],58.4
13,O=C1Nc2ccc(I)cc2C1=Cc1ccccc1 [10720/B06],21.2
14,CSc1ccc(C=C2C(=O)Nc3ccc(I)cc32)s1 [10720/B07],52.0
15,Cc1cc(O)cc(O)c1C=C1C(=O)Nc2ccc(I)cc21 [10720/B08],-12.6
16,CCOc1cc(C=C2C(=O)Nc3ccc(I)cc32)ccc1O [10720/B09],37.6
17,COc1ccc(O)c(C=C2C(=O)Nc3ccc(I)cc32)c1 [10720/B10],50.2
18,O=C1Nc2ccc(I)cc2C1=Cc1ncc[nH]1 [10720/B11],22.4
19,Cc1c(Br)ccc2c1C(=Cc1c(F)cc(F)cc1F)C(=O)N2 [10720/C02],23.5
20,COc1cc(O)ccc1C=C1C(=O)Nc2ccc(Br)c(C)c21 [10720/C03],0.9
21,COc1ccc(C=C2C(=O)Nc3ccc(Br)c(C)c32)cc1OC [10720/C04],-13.1
22,Cc1c(Br)ccc2c1C(=Cc1ccccc1O)C(=O)N2 [10720/C05],-15.3
23,Cc1c(Br)ccc2c1C(=Cc1ccccc1)C(=O)N2 [10720/C06],-9.7
